Laboratory results: US20200216439A1, “HETERO-1,5,6,7-TETRAHYDRO-4H-INDOL-4-ONES” (BAYER PHARMA AKTIENGESELLSCHAFT, priority 2015, published 2020)

Target: T1, catalytic domain of human Bub1 (amino acids 704-1085) (Homo sapiens, UniProt O43683)
T1 construct: catalytic domain of human Bub1 (amino acids 704-1085); His6 (N); made in house; host or cells: Hi5 insect cells
Experiment: Bub1 kinase assay (TR-FRET)
Assay type: biochemical
Conditions: TR-FRET; ATP 10 μM, peptide substrate 1 μM; 60 min at 22° C.; average or median if tested more than once; read-out: Inhibition of Bub1 kinase IC50
Outline: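 Eleven concentrations (0.1 nM–20 μM, duplicate) fitted by 4-parameter logistic for IC50. Read-out: EDTA-stopped TR-FRET (665/620 nm) detecting anti-phosphoserine binding to biotin-peptide (1 μM). Reaction used 10 μM ATP, 60 min at 22 °C, after 15 min compound preincubation with His-tagged human Bub1 704-1085.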

T1 sequence (O43683 704-1085): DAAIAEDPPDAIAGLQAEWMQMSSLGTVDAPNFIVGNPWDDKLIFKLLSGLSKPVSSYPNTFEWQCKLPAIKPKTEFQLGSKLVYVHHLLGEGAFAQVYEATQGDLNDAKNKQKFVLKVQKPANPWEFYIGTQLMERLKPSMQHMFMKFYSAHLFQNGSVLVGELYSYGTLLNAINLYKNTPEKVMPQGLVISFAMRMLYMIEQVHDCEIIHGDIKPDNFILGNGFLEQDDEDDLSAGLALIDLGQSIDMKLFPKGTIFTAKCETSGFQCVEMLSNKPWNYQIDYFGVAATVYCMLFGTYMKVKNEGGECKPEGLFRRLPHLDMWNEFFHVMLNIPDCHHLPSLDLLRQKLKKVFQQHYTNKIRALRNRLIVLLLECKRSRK

Structure (SMILES)	IC50 [nM]
CSCCC(=O)N1CC(=O)c2c([nH]c(-c3ccnc(NC(C)=O)c3)c2Nc2ccccc2)C1 [Example 192]	30
CC(=O)Nc1cc(-c2[nH]c3c(c2Nc2ccccc2)C(=O)CN(C(=O)c2cnsc2)C3)ccn1 [Example 193, N-{4-[3-Anilino-4-oxo-6-(1,2-thiazol-4-ylcarbonyl)-4,5,6,7-tetrahydro-1H-pyrrolo[2,3-c]pyridin-2-yl]pyridin-2-yl}acetamide]	19
CC(=O)Nc1cc(-c2[nH]c3c(c2Nc2ccccc2)C(=O)CN(C(=O)c2cscn2)C3)ccn1 [Example 194, N-{4-[3-Anilino-4-oxo-6-(1,3-thiazol-4-ylcarbonyl)-4,5,6,7-tetrahydro-1H-pyrrolo[2,3-c]pyridin-2-yl]pyridin-2-yl}acetamide]	46
CC(=O)Nc1cc(-c2[nH]c3c(c2Nc2ccccc2)C(=O)CN(C(=O)c2cocn2)C3)ccn1 [Example 195, N-{4-[3-Anilino-6(1,3-oxazol-4-ylcarbonyl)-4-oxo-4,5,6,7-tetrahydro-1H-pyrrolo[2,3-c]pyridin-2-yl]pyridin-2-yl}acetamide]	24
CC(C)(C)OC(=O)N1CC(=O)c2c([nH]c(-c3ccnc(NC(=O)[C@@H]4C[C@@H]4F)c3)c2Nc2ccccc2)C1 [Example 196, tert-Butyl 3-anilino-2-[2-({[(1S,2S)-2-fluorocyclopropyl]carbonyl}amino)pyridin-4-yl]-4-oxo-1,4,5,7-tetrahydro-6H-pyrrolo[2,3-c]pyridine-6-carboxylate]	7
O=C1CNCc2[nH]c(-c3ccnc(NC(=O)[C@@H]4C[C@@H]4F)c3)c(Nc3ccccc3)c21 [Example 197, (1S,2S)—N-[4-(3-anilino-4-oxo-4,5,6,7-tetrahydro-1H-pyrrolo[2,3-c]pyridin-2-yl)pyridin-2-yl]-2-fluorocyclopropanecarboxamide]	40
CCC(=O)N1CC(=O)c2c([nH]c(-c3ccnc(NC(=O)[C@@H]4C[C@@H]4F)c3)c2Nc2ccccc2)C1 [Example 198, (1S,2S)-2-Fluoro-N-4-[4-oxo-3-(phenylamino)-6-propanoyl-4,5,6,7-tetrahydro-1H-pyrrolo[2,3-c]pyridin-2-yl]pyridin-2-ylcyclopropanecarboxamide]	3
CC(=O)Nc1cc(-c2[nH]c3c(c2Nc2ccccc2)C(=O)CN(C(=O)c2ncco2)C3)ccn1 [Example 199, N-4-[6-(1,3-Oxazol-2-ylcarbonyl)-4-oxo-3-(phenylamino)-4,5,6,7-tetrahydro-1H-pyrrolo[2,3-c]pyridin-2-yl]pyridin-2-ylacetamide]	20
O=C1CN(C(=O)c2ccncc2)Cc2[nH]c(-c3ccnc(NC(=O)[C@@H]4C[C@@H]4F)c3)c(Nc3ccccc3)c21 [Example 200, (1S,2S)-2-Fluoro-N-4-[4-oxo-3-(phenylamino)-6-(pyridin-4-ylcarbonyl)-4,5,6,7-tetrahydro-1H-pyrrolo[2,3-c]pyridin-2-yl]pyridin-2-ylcyclopropanecarboxamide]	7
CC(C)(O)CC(=O)N1CC(=O)c2c([nH]c(-c3ccnc(NC(=O)[C@@H]4C[C@@H]4F)c3)c2Nc2ccccc2)C1 [Example 201]	6
O=C1CN(C(=O)CCO)Cc2[nH]c(-c3ccnc(NC(=O)[C@@H]4C[C@@H]4F)c3)c(Nc3ccccc3)c21 [Example 202, (1S,2S)-2-Fluoro-N-4-[6-(3-hydroxypropanoyl)-4-oxo-3-(phenylamino)-4,5,6,7-tetrahydro-1H-pyrrolo[2,3-c]pyridin-2-yl]pyridin-2-ylcyclopropanecarboxamide]	8
CS(=O)(=O)N1CC(=O)c2c([nH]c(-c3ccnc(NC(=O)[C@@H]4C[C@@H]4F)c3)c2Nc2ccccc2)C1 [Example 203]	2
O=C1CN(S(=O)(=O)c2cnc[nH]2)Cc2[nH]c(-c3ccnc(NC(=O)[C@@H]4C[C@@H]4F)c3)c(Nc3ccccc3)c21 [Example 204, (1S,2S)-2-Fluoro-N-4-[6-(1H-imidazol-5-ylsulfonyl)-4-oxo-3-(phenylamino)-4,5,6,7-tetrahydro-1H-pyrrolo[2,3-c]pyridin-2-yl]pyridin-2-ylcyclopropanecarboxamide]	3
COC(=O)N1CC(=O)c2c([nH]c(-c3ccnc(NC(=O)[C@@H]4C[C@@H]4F)c3)c2Nc2ccccc2)C1 [Example 205, Methyl 2-[2-([(1S,2S)-2-fluorocyclopropyl]carbonylamino)pyridin-4-yl]-4-oxo-3-(phenylamino)-1,4,5,7-tetrahydro-6H-pyrrolo[2,3-c]pyridine-6-carboxylate]	3
CNC(=O)N1CC(=O)c2c([nH]c(-c3ccnc(NC(=O)[C@@H]4C[C@@H]4F)c3)c2Nc2ccccc2)C1 [Example 206, 2-[2-([(1S,2S)-2-Fluorocyclopropyl]carbonylamino)pyridin-4-yl]-N-methyl-4-oxo-3-(phenylamino)-1,4,5,7-tetrahydro-6H-pyrrolo[2,3-c]pyridine-6-carboxamide]	4
CN(C)C(=O)N1CC(=O)c2c([nH]c(-c3ccnc(NC(=O)[C@@H]4C[C@@H]4F)c3)c2Nc2ccccc2)C1 [Example 207, 2-[2-([(1S,2S)-2-Fluorocyclopropyl]carbonylamino)pyridin-4-yl]-N,N-dimethyl-4-oxo-3-(phenylamino)-1,4,5,7-tetrahydro-6H-pyrrolo[2,3-c]pyridine-6-carboxamide]	3
CCNC(=O)N1CC(=O)c2c([nH]c(-c3ccnc(NC(=O)[C@@H]4C[C@@H]4F)c3)c2Nc2ccccc2)C1 [Example 208, N-Ethyl-2-[2-([(1S,2S)-2-fluorocyclopropyl]carbonylamino)pyridin-4-yl]-4-oxo-3-(phenylamino)-1,4,5,7-tetrahydro-6H-pyrrolo[2,3-c]pyridine-6-carboxamide]	5
CN1CCN(C(=O)N2CC(=O)c3c([nH]c(-c4ccnc(NC(=O)[C@@H]5C[C@@H]5F)c4)c3Nc3ccccc3)C2)CC1 [Example 209, (1S,2S)-2-Fluoro-N-(4-6-[(4-methylpiperazin-1-yl)carbonyl]4-oxo-3-(phenylamino)-4,5,6,7-tetrahydro-1H-pyrrolo[2,3-c]pyridin-2-ylpyridin-2-yl)cyclopropanecarboxamide]	7
CC(=O)Nc1cc(-c2[nH]c3c(c2Nc2ccccc2)C(=O)CN(C(=O)CCS(C)(=O)=O)C3)ccn1 [Example 210, N-(4-6-[3-(Methylsulfonyl)propanoyl]-4-oxo-3-(phenylamino)-4,5,6,7-tetrahydro-1H-pyrrolo[2,3-c]pyridin-2-ylpyridin-2-yl)acetamide]	3
CC(=O)Nc1cc(-c2[nH]c3c(c2Nc2ccccc2)C(=O)CN(C(=O)CCF)C3)ccn1 [Example 211, N-4-[6-(3-Fluoropropanoyl)-4-oxo-3-(phenylamino)-4,5,6,7-tetrahydro-1H-pyrrolo[2,3-c]pyridin-2-yl]pyridin-2-ylacetamide]	4
O=C1CN(C(=O)C2CC2)Cc2[nH]c(-c3ccnc(NC(=O)[C@@H]4C[C@@H]4F)c3)c(Nc3ccccc3)c21 [Example 212, (1S,2S)—N-4-[6-(Cyclopropylcarbonyl)-4-oxo-3-(phenylamino)-4,5,6,7-tetrahydro-1H-pyrrolo[2,3-c]pyridin-2-yl]pyridin-2-yl-2-fluorocyclopropanecarboxamide]	3
CC(C)(C)C(=O)N1CC(=O)c2c([nH]c(-c3ccnc(NC(=O)[C@@H]4C[C@@H]4F)c3)c2Nc2ccccc2)C1 [Example 213]	2
CC(C)S(=O)(=O)N1CC(=O)c2c([nH]c(-c3ccnc(NC(=O)[C@@H]4C[C@@H]4F)c3)c2Nc2ccccc2)C1 [Example 214, (1S,2S)-2-Fluoro-N-4-[4-oxo-3-(phenylamino)-6-(propan-2-ylsulfonyl)-4,5,6,7-tetrahydro-1H-pyrrolo[2,3-c]pyridin-2-yl]pyridin-2-ylcyclopropanecarboxamide]	3
CCOC(=O)N1CC(=O)c2c([nH]c(-c3ccnc(NC(=O)[C@@H]4C[C@@H]4F)c3)c2Nc2ccccc2)C1 [Example 215, Ethyl 2-[2-([(1S,2S)-2-fluorocyclopropyl]carbonylamino)pyridin-4-yl]-4-oxo-3-(phenylamino)-1,4,5,7-tetrahydro-6H-pyrrolo[2,3-c]pyridine-6-carboxylate]	4
CC(C)OC(=O)N1CC(=O)c2c([nH]c(-c3ccnc(NC(=O)[C@@H]4C[C@@H]4F)c3)c2Nc2ccccc2)C1 [Example 216, Propan-2-yl 2-[2-([(1S,2S)-2-fluorocyclopropyl]carbonylamino)pyridin-4-yl]-4-oxo-3-(phenylamino)-1,4,5,7-tetrahydro-6H-pyrrolo[2,3-c]pyridine-6-carboxylate]	6
CCN(CC)C(=O)N1CC(=O)c2c([nH]c(-c3ccnc(NC(=O)[C@@H]4C[C@@H]4F)c3)c2Nc2ccccc2)C1 [Example 217, N,N-Diethyl-2-[2-([(1S,2S)-2-fluorocyclopropyl]carbonylamino)pyridin-4-yl]-4-oxo-3-(phenylamino)-1,4,5,7-tetrahydro-6H-pyrrolo[2,3-c]pyridine-6-carboxamide]	4
CC(=O)Nc1cc(-c2[nH]c3c(c2Nc2ccccc2)C(=O)CN(C(=O)CC(C)(C)C(F)(F)F)C3)ccn1 [Example 219, N-{4-[3-Anilino-4-oxo-6-(4,4,4-trifluoro-3,3-dimethylbutanoyl)-4,5,6,7-tetrahydro-1H-pyrrolo[2,3-c]pyridin-2-yl]pyridin-2-yl}acetamide]	22
CC(C)(C)OC(=O)N1CC(=O)c2c([nH]c(-c3ccncc3OCC(F)F)c2Nc2ccccc2)C1 [Example 220, tert-Butyl 3-anilino-2-[3-(2,2-difluoroethoxy)pyridin-4-yl]-4-oxo-1,4,5,7-tetrahydro-6H-pyrrolo[2,3-c]pyridine-6-carboxylate]	18
